Measurements as given in PubChem BioAssay (NCI).
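Dose response: 5 concentrations. Exposure: 48 h. Format: 96-well plates. Endpoint: linear interpolation; highest concentration if not reached. The concentration for full growth arrest is given as TGI.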

Experiments:
Experiment in all cases: NCI tumour cell line growth inhibition, 48 h
[1] = system: BT-549 breast
[2] = system: COLO 205 colon
[3] = system: DU-145 prostate
[4] = system: EKVX NSCLC
[5] = system: HCT-116 colon
[6] = system: HT29 colon
[7] = system: K-562 leukemia
[8] = system: M14 melanoma
[9] = system: MCF7 breast
[10] = system: OVCAR-4 ovarian
[11] = system: RXF 393 renal
[12] = system: SF-295 CNS
[13] = system: SK-MEL-2 melanoma
[14] = system: SK-MEL-5 melanoma
[15] = system: TK-10 renal
[16] = system: UACC-62 melanoma
[17] = system: KM12 colon
[18] = system: UO-31 renal

| SMILES | TGI [1] [µM] | TGI [2] [µM] | TGI [3] [µM] | TGI [4] [µM] | TGI [5] [µM] | TGI [6] [µM] | TGI [7] [µM] | TGI [8] [µM] | TGI [9] [µM] | TGI [10] [µM] | TGI [11] [µM] | TGI [12] [µM] | TGI [13] [µM] | TGI [14] [µM] | TGI [15] [µM] | TGI [16] [µM] | TGI [17] [µM] | TGI [18] [µM] |
| --- | --- | --- | --- | --- | --- | --- | --- | --- | --- | --- | --- | --- | --- | --- | --- | --- | --- | --- |
| c1ccc(-c2nc3ccccc3n3c(CN4CCCCC4)nnc23)cc1 | > 100 | > 100 | > 100 | > 100 | > 100 | > 100 | > 100 | > 100 | > 100 | > 100 | > 100 | > 100 | > 100 | > 100 | > 100 | > 100 |  |  |
| Cc1cc(S(=O)(=O)Nc2nc(N)n(-c3ccccn3)n2)c(S)cc1Cl | > 100 | > 100 | > 100 | > 100 | > 100 | > 100 | > 100 | > 100 | > 100 | > 100 | > 100 |  | > 100 | > 100 | > 100 | > 100 | > 100 | > 100 |
| O=C(O)C1CCCN(CCc2c[nH]c3ccccc23)C1 (stereo unspecified) | > 100 | > 100 | > 100 | > 100 | > 100 | > 100 | > 100 | > 100 | > 100 | > 100 | > 100 | > 100 | > 100 |  | > 100 | > 100 | > 100 |  |
| Cc1cc(C)c2c(O)c(S(=O)(=O)c3ccc(Cl)cc3)c(=O)oc2c1 | > 100 | > 100 | > 100 | 93 | > 100 | > 100 | > 100 | > 100 | > 100 | > 100 | > 100 | > 100 | > 100 | > 100 |  | > 100 | > 100 | > 100 |
| N#CC1C(=O)N(c2ccccc2)NC12OC(=O)c1ccncc12 (stereo unspecified) | > 20 | > 20 | > 20 | > 20 | > 20 | > 20 | > 20 | > 20 | > 20 | > 20 | > 20 | > 20 | > 20 | > 20 |  | > 20 |  | > 20 |
| O=c1cc(N2CCNCC2)nc2ccccn12 | > 100 | > 100 | > 100 | > 100 | > 100 | > 100 | > 100 | > 100 | > 100 |  | > 100 | > 100 | > 100 | > 100 | > 100 | > 100 | > 100 | > 100 |
| N#CC12CNCC1CN=N2 (stereo unspecified) | > 100 | > 100 | > 100 | > 100 | > 100 | > 100 | > 100 |  | > 100 | > 100 | > 100 | > 100 | > 100 | > 100 | > 100 | > 100 | > 100 | > 100 |
